These results are taken from patent US10028961B2, “Therapeutically active compounds and their methods of use” (AGIOS PHARMACEUTICALS, INC., priority 2013, dated 2018).

Structures are written as SMILES. Some results are limits rather than exact numbers.

Test [1] concerns U87MG pLVX-IDH2 R140Q-neo cells. The test can be described thus: U87MG pLVX-IDH2 R140Q-neo cell based assay, 2-HG by LC-MS. The following applies: Homo sapiens, U-87 MG.
The target of test [2] is IDH1 wt/IDH1 R132C heterodimer (Homo sapiens (Human), UniProt O75874, R132C). The test can be described thus: In vitro assay for IDH1m R132C inhibitors, IDH1 wt/IDH1 R132C heterodimer, NADPH depletion (diaphorase/resazurin). The following applies: NADPH/NADP. Format: biochemical. The essentials: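 Remaining NADPH was measured by diaphorase/resazurin conversion (5 min, 25 °C) as resorufin fluorescence, Ex 544/Em 590. DMSO was diluted 1:50 into the reaction, and IC50s were derived.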
Sequence of IDH1 wt/IDH1 R132C heterodimer (O75874 whole entry R132C): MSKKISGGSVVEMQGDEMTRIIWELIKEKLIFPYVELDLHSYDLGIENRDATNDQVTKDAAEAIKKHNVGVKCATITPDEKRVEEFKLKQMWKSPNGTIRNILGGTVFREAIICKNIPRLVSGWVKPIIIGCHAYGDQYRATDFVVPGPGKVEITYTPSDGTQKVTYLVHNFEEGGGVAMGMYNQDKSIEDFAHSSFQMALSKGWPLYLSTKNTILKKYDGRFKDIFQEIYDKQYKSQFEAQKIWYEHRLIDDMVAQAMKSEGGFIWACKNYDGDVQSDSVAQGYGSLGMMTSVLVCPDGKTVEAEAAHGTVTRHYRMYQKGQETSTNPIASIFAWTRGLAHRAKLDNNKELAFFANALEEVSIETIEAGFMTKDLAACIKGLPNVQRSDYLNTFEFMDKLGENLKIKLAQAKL
Sequence of IDH1 wt/IDH1 R132C heterodimer (O75874 whole entry, stated change not applied): as the sequence (O75874 whole entry R132C) above, with C132R counted along it

In test [3] the target is IDH1 wt/IDH1 R132H heterodimer (Homo sapiens (Human), UniProt O75874, R132H). Put plainly: In vitro assay for IDH1m R132H inhibitors, IDH1 wt/IDH1 R132H heterodimer, NADPH depletion (diaphorase/resazurin). It counts as biochemical. The following applies: IDH1 wt/R132H heterodimer, NADPH/NADP, not saturated; read-out: IDH1 wt/R132H NADPH/NADP IC50 not saturated. The method in brief:
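Read-out is NADPH left after α-KG reduction to 2-HG, measured via resorufin fluorescence after 5 min diaphorase/resazurin step at 25° C. Enzyme is sf9-expressed IDH1wt-his/IDH1R132H-flag heterodimer, pre-incubated 1 hr at room temperature with compound and cofactor. IC50s from DMSO stocks diluted 1:50.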
(In general: Resazurin is reduced to fluorescent resorufin, in cell work by metabolically active cells.)

In test [4] the test system is Neurosphere cells (TS603). The test can be described thus: Cellular assay for IDH1m R132H inhibitors, 2-HG by LC-MS in neurosphere cells (TS603). The note with it: 2-HG in media at 48 hours. Format: cell-based. The method in brief:
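TS603 neurosphere cells in NeuroCult medium were dosed with compound (0.25% DMSO final) at 37 C, 5% CO2. After 48 hours, medium 2-HG was measured by LC-MS. At 72 hours, viability was read by CellTiter-Glo luminescence.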

Sequence of IDH1 wt/IDH1 R132H heterodimer (O75874 whole entry R132H): as the sequence (O75874 whole entry R132C) above, with C132H counted along it
Sequence of IDH1 wt/IDH1 R132H heterodimer (O75874 whole entry, stated change not applied): as the sequence (O75874 whole entry R132C) above, with C132R counted along it

`FC1(F)CCC(Nc2nc(Nc3ccnc(C(F)(F)F)c3)nc(-c3cccc(Cl)n3)n2)C1` (centres unmarked) [Compound 115]: the IC50 in test [1], in test [2], in test [3] and in test [4] was < 0.05 µM in each case.
As to `C[C@@H](Nc1nc(N[C@H](C)C2CC2)nc(-n2ccc(C(F)(F)F)n2)n1)C1CC1` [Compound 121], the IC50 in test [1], in test [2], in test [3] and in test [4] was < 0.05 µM each time.
Take `Fc1cc(F)cc(Nc2nc(NC3CCC(F)(F)C3)nc(-c3cccc(C(F)(F)F)n3)n2)c1` (centres unmarked) [Compound 123]: the IC50 in test [1], in test [2], in test [3] and in test [4] was < 0.05 µM in each case.
On to `N#Cc1cc(F)cc(Nc2nc(NC3CCC(F)(F)C3)nc(-c3cccc(C(F)(F)F)n3)n2)c1` (centres unmarked) [Compound 124], for which the IC50 in test [1], in test [2], in test [3] and in test [4] was < 0.05 µM each time.
For the compound `FC1(F)CC(Nc2nc(NC3CC(F)(F)C3)nc(-n3ccc(C(F)(F)F)n3)n2)C1` [Compound 126], the IC50 in test [1], in test [2], in test [3] and in test [4] was < 0.05 µM in each case.
As for `N#CC1(c2cc(Nc3nc(NC4CCC(F)(F)C4)nc(-c4cccc(Cl)n4)n3)ccn2)CC1` (centres unmarked) [Compound 127], the IC50 in test [1], in test [2], in test [3] and in test [4] was < 0.05 µM throughout.
Regarding `FC1(F)CC(Nc2nc(NC3CC(F)(F)C3)nc(-c3nc(C(F)(F)F)cs3)n2)C1` [Compound 128], the IC50 in test [1], in test [2], in test [3] and in test [4] was < 0.05 µM in each case.
Take `Clc1cccc(-c2nc(NC(C3CC3)C3CC3)nc(NC(C3CC3)C3CC3)n2)n1` [Compound 131]: the IC50 in test [1], in test [2], in test [3] and in test [4] was < 0.05 µM throughout.
`CC(Nc1nc(Nc2ccnc(C3(C#N)CC3)c2)nc(-c2cccc(Cl)n2)n1)C(F)(F)F` (centres unmarked) [Compound 134]: the IC50 in test [1], in test [2], in test [3] and in test [4] was < 0.05 µM throughout.
As for `FC(F)c1cccc(-c2nc(NC3CC(F)(F)C3)nc(NC3CC(F)(F)C3)n2)n1` [Compound 145], the IC50 in test [1], in test [2], in test [3] and in test [4] was < 0.05 µM each time.
For `FC1(F)CCC(Nc2nc(NC3CCC(F)(F)C3)nc(-n3ccc(C(F)(F)F)n3)n2)C1` (centres unmarked) [Compound 146], the IC50 in test [1], in test [2], in test [3] and in test [4] was < 0.05 µM in each case.
For the compound `FC1(F)CCC(Nc2nc(NC3CCC(F)(F)CC3)nc(-c3cncc(Cl)n3)n2)CC1` [Compound 147], the IC50 in test [1], in test [2], in test [3] and in test [4] was < 0.05 µM throughout.
Turning to `FC1(F)CC(Nc2nc(NC3CC(F)(F)C3)nc(-c3cccc(C(F)(F)F)n3)n2)C1` [Compound 149], the IC50 in test [1], in test [2], in test [3] and in test [4] was < 0.05 µM throughout.
With `N#CC1(c2cc(Nc3nc(NC4CCC(F)(F)C4)nc(-c4cccc(C(F)(F)F)n4)n3)ccn2)CC1` (centres unmarked) [Compound 151], the IC50 in test [1], in test [2], in test [3] and in test [4] was < 0.05 µM in each case.
`FC1(F)CCC(Nc2nc(NC3Cc4ccccc4C3)nc(-c3cccc(C(F)(F)F)n3)n2)C1` (centres unmarked) [Compound 152]: the IC50 in test [1], in test [2], in test [3] and in test [4] was < 0.05 µM in each case.
As to `CC(C)(C)Nc1nc(Nc2ccnc(C#N)c2)nc(-c2cccc(C(F)(F)F)n2)n1` [Compound 162], the IC50 in test [1], in test [2], in test [3] and in test [4] was < 0.05 µM throughout.
In the case of `N#Cc1cc(F)cc(Nc2nc(NC3CCC(F)(F)CC3)nc(-c3cccc(C(F)(F)F)n3)n2)c1` [Compound 164], the IC50 in test [1], in test [2], in test [3] and in test [4] was < 0.05 µM each time.
Turning to `C[C@@H](Nc1nc(Nc2ccnc(C3(C#N)CC3)c2)nc(-c2cccc(Cl)n2)n1)C1CC1` [Compound 167], the IC50 in test [1], in test [2], in test [3] and in test [4] was < 0.05 µM in each case.
As to `FC1(F)CC(Nc2nc(NC3CC(F)(F)C3)nc(-c3csc(C(F)(F)F)n3)n2)C1` [Compound 170], the IC50 in test [1], in test [2], in test [3] and in test [4] was < 0.05 µM throughout.
In the case of `FC1(F)CCC(Nc2nc(NC3CCC(F)(F)CC3)nc(-n3ccc(C(F)(F)F)n3)n2)CC1` [Compound 176], the IC50 in test [1], in test [2], in test [3] and in test [4] was < 0.05 µM throughout.
Take `FC1(F)CCC(Nc2nc(Nc3ccnc(C(F)(F)F)c3)nc(-c3cccc(C(F)(F)F)n3)n2)C1` (centres unmarked) [Compound 178]: the IC50 in test [1], in test [2], in test [3] and in test [4] was < 0.05 µM throughout.
In the case of `N#Cc1cc(Nc2nc(NC3CCC(F)(F)C3)nc(-c3cccc(C(F)(F)F)n3)n2)ccn1` (centres unmarked) [Compound 181], the IC50 in test [1], in test [2], in test [3] and in test [4] was < 0.05 µM in each case.
Take `FC1(F)CCC(Nc2nc(NC3Cc4ccc(Cl)cc4C3)nc(-c3cccc(C(F)(F)F)n3)n2)C1` (centres unmarked) [Compound 182]: the IC50 in test [1], in test [2], in test [3] and in test [4] was < 0.05 µM throughout.
In the case of `CC(F)(F)c1cccc(-c2nc(NC3CC(F)(F)C3)nc(NC3CC(F)(F)C3)n2)n1` [Compound 187], the IC50 in test [1], in test [2], in test [3] and in test [4] was < 0.05 µM each time.
On to `N#CC1(c2cc(Nc3nc(NC4CCC(F)(F)CC4)nc(-c4cccc(C(F)(F)F)n4)n3)ccn2)CC1` [Compound 189], for which the IC50 in test [1], in test [2], in test [3] and in test [4] was < 0.05 µM throughout.
For the compound `FC1(F)CCC(Nc2nc(NC3CC4(C3)CC(F)(F)C4)nc(-c3cccc(C(F)(F)F)n3)n2)C1` (centres unmarked) [Compound 191], the IC50 in test [1], in test [2], in test [3] and in test [4] was < 0.05 µM in each case.
Turning to `FC1(F)CCC(Nc2nc(Nc3ccnc(C(F)(F)F)c3)nc(-c3cccc(C(F)(F)F)n3)n2)CC1` [Compound 192], the IC50 in test [1], in test [2], in test [3] and in test [4] was < 0.05 µM each time.
In the case of `C[C@@H](Nc1nc(NC(C2CC2)C2CC2)nc(-c2cccc(C(F)(F)F)n2)n1)C1CC1` [Compound 193], the IC50 in test [1], in test [2], in test [3] and in test [4] was < 0.05 µM each time.
Consider `Fc1ccc([C@H]2C[C@@H](Nc3nc(NC4CCC(F)(F)C4)nc(-c4cccc(C(F)(F)F)n4)n3)C2)cc1` (some centres unmarked) [Compound 199], for which the IC50 in test [1], in test [2], in test [3] and in test [4] was < 0.05 µM throughout.
For `CC(Nc1nc(N[C@H](C)C2CC2)nc(-c2cccc(C(F)(F)F)n2)n1)C(F)(F)F` (some centres unmarked) [Compound 203], the IC50 in test [1], in test [2], in test [3] and in test [4] was < 0.05 µM in each case.
As for `N#Cc1cc(Nc2nc(NC3CC(F)(F)C3)nc(-c3cccc(C(F)(F)F)n3)n2)ccn1` [Compound 213], the IC50 in test [1], in test [2], in test [3] and in test [4] was < 0.05 µM in each case.
In the case of `CC(CC#N)Nc1nc(N[C@H](C)C2CC2)nc(-c2cccc(C(F)(F)F)n2)n1` (some centres unmarked) [Compound 214], the IC50 in test [1], in test [2], in test [3] and in test [4] was < 0.05 µM in each case.
With `FC1(F)CCC(Nc2nc(NC3CCN(c4ccccn4)C3)nc(-c3cccc(C(F)(F)F)n3)n2)C1` (centres unmarked) [Compound 222], the IC50 is 0.1 to 1 µM in test [1], 0.05 to 0.1 µM in test [2], < 0.05 µM in test [3] and < 0.05 µM in test [4].
Regarding `FC1(F)CCC(Nc2nc(NC3CCC(F)(F)CC3)nc(-c3csc(C(F)(F)F)n3)n2)CC1` [Compound 223], the IC50 in test [1] was < 0.05 µM; in test [2], 0.05 to 0.1 µM; in test [3], < 0.05 µM; in test [4] it was < 0.05 µM.
Take `FC(F)c1cccc(-c2nc(NC3CCC(F)(F)CC3)nc(NC3CCC(F)(F)CC3)n2)n1` [Compound 224]: the IC50 in test [1], in test [2], in test [3] and in test [4] was < 0.05 µM each time.
